# In patent US20050221328A1, “Inhibitors of inflammatory gene activity and cholesterol biosynthesis” (Wyeth, priority 2002, published 2005):
# Tests used:
# mouse liver [1] = assay: EE induction of gene expression in the mouse liver (GeneChip); type: in vivo; details: 100 ug/kg/day EE sc 5 days;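 also: ovariectomized C57BL/6 mice, liver polyA RNA on Affymetrix murine 11K GeneChips, fold expression versus vehicle-pretreated PBS-injected mice set to 1.0, mean of two independent experiments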
# Method: Ovariectomized C57BL/6 mice were pretreated by subcutaneous administration of either corn oil/ethanol vehicle or 100 ug/kg/day ethynylestradiol (EE) for 5 days. […] One hour later the livers were removed and polyA RNA was prepared. Global gene expression was determined by analysis using murine 11K GeneChips from Affymetrix. For each gene, the level of expression in animals receiving vehicle pretreatment plus PBS was defined as 1.0, with the expression levels in the mice receiving vehicle pretreatment±IL-1β or EE pretreatment±IL-1β defined relative to this. The results shown are the mean from two independent experiments.
# To determine whether EE induction of any other gene could explain the inhibition of IL-1β gene inductions, the GeneChip results were analyzed for EE induction of gene expression.
# [2] = tested on: Fnk, JAB, LIX, bcl-3 and SHP; assay: Liver expression of Fnk, JAB, LIX, bcl-3 and SHP by realtime PCR after estrogen receptor ligand pretreatment and IL-1β
# Method: Referring to FIG. 3a, to distinguish these two mechanisms, the IL-1β fold induction of Fnk, JAB, LIX, and bcl-3 and the IL-1β fold repression of SHP was quantified in animals pretreated with vehicle (black bars) or 100 ug/kg/day EE (grey bars). Liver RNA levels of each gene (mean +/−SEM) were determined by realtime PCR of RNA from each individual animal.
# Referring to FIGS. 4a, 4b, 4c, 4d and 4e, experiments were conducted to determine whether EE blocks IL-1β induction of gene expression by an estrogen receptor (ER) dependent mechanism. Estrogens can regulate gene expression by many mechanisms including ER independent pathways such as antioxidant mechanisms. […] Liver expression levels of Fnk, JAB, LIX, bcl-3 and SHP (mean +/−SEM) were determined by realtime PCR.
# Referring to FIGS. 5a, 5b, 5c, 5d, and 5e, experiments were conducted to determine whether ERα is required for EE regulation of gene expression in the liver. To determine whether ERα or ERβ mediated the EE effects on IL-1β gene expression in the liver, C57BL/6 wild type mice, C57BL/6 ERαKO mice, or 129 ERβKO mice were pretreated with vehicle (black bars) or […] EE (gray bars) for 5 days followed by a 1 hour treatment with IL-1β. Liver expression levels of Fnk, JAB, LIX, bcl-3, and SHP (mean +/−SEM) were quantified by realtime PCR, with expression in animals receiving vehicle+PBS defined as 1.0.
# Fnk, JAB, LIX, and bcl-3 = assay: EE alteration of IL-1β induction of Fnk, JAB, LIX and bcl-3 in liver, spleen and lung; type: in vivo, mouse; details: EE pretreatment
# Description: The requirement for ERα for EE activity in the liver is consistent with the nearly exclusive presence of ERα in the liver (as determined by realtime PCR, panel A). In contrast, the lung expresses relatively low levels of ERα and high levels of ERB. […] In contrast, EE pretreatment had no effect on IL-1β induction of Fnk, JAB, LIX, or bcl-3 in the lung.
# mouse liver [3] = details: GeneChip, 1 h after 20 ug/kg IL-1β ip, pretreated 5 days with vehicle or 100 ug/kg/day EE sc, vehicle+PBS=1.0
# Method: Experiments were conducted to evaluate IL-1β regulation of gene expression in the mouse liver. Ovariectomized C57BL/6 mice were pretreated by subcutaneous administration of either corn oil/ethanol vehicle or 100 ug/kg/day ethynylestradiol (EE) for 5 days. On the fifth day, the mice received an intraperitoneal injection of either PBS or 20 ug/kg IL-1β in PBS. One hour later the livers were removed and polyA RNA was prepared. Global gene expression was determined by analysis using murine 11K GeneChips from Affymetrix. For each gene, the level of expression in animals receiving vehicle pretreatment plus PBS was defined as 1.0, with the expression levels in the mice receiving vehicle pretreatment±IL-1β or EE pretreatment±IL-1β defined relative to this. The results shown are the mean from two independent experiments.
# The fold regulation of each gene is plotted for animals receiving vehicle pretreatment x-axis) vs. animals receiving pretreatment with EE (y-axis). Genes with IL-1β induction unaffected by EE pretreatment would lie along the dotted diagonal.
# [4] = mouse liver, EE treated mice vs vehicle treated mice
# 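For IL-1 Induction A20 (Tnfaip3) in this document: ovariectomized C57BL/6 mice, liver polyA RNA profiled, values are fold expression relative to vehicle plus PBS, averaged over two independent experiments.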
# 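For IL-1 Induction B94, TNF-α induced protein 2 (Tnfaip2) in this document: ovariectomized C57BL/6 mice, liver polyA RNA profiled, values are fold expression relative to vehicle plus PBS, averaged over two independent experiments.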
# 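For IL-1 Induction C/EBPδ (Cebpd) in this document: ovariectomized C57BL/6 mice, liver polyA RNA profiled, values are fold expression relative to vehicle plus PBS, averaged over two independent experiments.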
# 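For IL-1 Induction CD14 (Cd14) in this document: ovariectomized C57BL/6 mice, liver polyA RNA profiled, values are fold expression relative to vehicle plus PBS, averaged over two independent experiments.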
structure (smiles),measurement,setting,value
"C#C[C@]1(O)CC[C@H]2[C@@H]3CCc4cc(O)ccc4[C@H]3CC[C@@]21C [EE, ethynylestradiol]",EE Induction C1Qc (C1qc),mouse liver [1],2.3
same,EE Induction C1qB (C1qb),mouse liver [1],2.8
same,EE Induction CD53 (Cd53),mouse liver [1],2.9
same,EE Induction CD68 antigen (Cd68),mouse liver [1],3.1
same,EE Induction CD97 (Cd97),mouse liver [1],6.0
same,"EE Induction Cytochrome P450, 17 (Cyp17)",mouse liver [1],32.3
same,EE Induction F4/80 (Emr1),mouse liver [1],3.1
same,"EE Induction H2A histone family, member X (H2afx)",mouse liver [1],5.1
same,"EE Induction Keratin complex 2, basic, gene 4 (Krt2-4)",mouse liver [1],38.0
same,EE Induction apolipoprotein A-IV (Apoa4),mouse liver [1],3.5
same,EE Induction apolipoprotein C2 (Apoc2),mouse liver [1],2.2
same,EE Induction apoptosis inhibitory 6 (Api6),mouse liver [1],3.3
same,EE Induction cadherin 1 (Cdh1),mouse liver [1],2.6
same,EE Induction cathepsin S (Ctss),mouse liver [1],4.0
same,EE Induction cell division cycle 2 homolog A (Cdc2a),mouse liver [1],4.6
same,EE Induction colony stimulating factor 1 receptor (Csf1r),mouse liver [1],2.8
same,EE Induction creatine kinase B (Ckb),mouse liver [1],13.0
same,"EE Induction cytochrome P450, 7b1 (Cyp7b1)",mouse liver [1],21.1
same,EE Induction desmocollin 2 (Dsc2),mouse liver [1],5.0
same,"EE Induction fatty acid binding protein 7, brain (Fabp7)",mouse liver [1],4.8
same,EE Induction interferon activated gene 203 (lfi203),mouse liver [1],2.5
same,EE Induction interleukin 17 receptor (Il17r),mouse liver [1],3.5
same,EE Induction leukemia inhibitory factor receptor (Lifr),mouse liver [1],5.1
same,EE Induction lymphocyte antigen 86 (Ly86),mouse liver [1],4.3
same,EE Induction lysosomal thiol reductase IP30 precursor (IP30),mouse liver [1],3.7
same,"EE Induction mannose receptor, C type 1 (Mrc1)",mouse liver [1],2.6
same,EE Induction myo-inositol-1-phosphate synthase (aa221219),mouse liver [1],167.1
same,EE Induction properdin (Pfc),mouse liver [1],2.9
same,EE Induction prostaglandin D2 synthase (Ptgds),mouse liver [1],72.8
same,EE Induction proteinase 3 (Prtn3),mouse liver [1],24.1
same,EE Induction pyrroline-5-carboxylate synthetase (Pycs),mouse liver [1],3.3
same,EE Induction serum/glucocorticoid regulated kinase (Sgk),mouse liver [1],4.5
same,EE Induction signal transducer and activator of transcription 5A (Stat5a),mouse liver [1],4.1
same,"EE Induction solute carrier family 11, member 1 (Slc11a1)",mouse liver [1],3.6
same,EE Induction stathmin (Kist),mouse liver [1],3.5
same,EE Induction testosterone 16-alpha-hydroxylase (C-16-alpha) (Cyp2d9),mouse liver [1],2.3
same,"EE Induction trefoil factor 3, intestinal (Tff3)",mouse liver [1],16.3
same,EE Induction type llb Na/phosphate-cotransporter (Npt2b),mouse liver [1],13.5
same,"EE inhibition of IL-1β regulation of Fnk, JAB, LIX, bcl-3, SHP in animals lacking ERβ vs wild type","[2]; 129 ERβKO mice vs C57BL/6 wild type, 10 ug/kg/day EE 5 days, IL-1β 1 hour",comparable
same,"effect on IL-1β regulation of Fnk, JAB, LIX, bcl-3, SHP in animals lacking ERα","[2]; C57BL/6 ERαKO mice, 10 ug/kg/day EE 5 days, IL-1β 1 hour",no effect
same,"effect on regulation of liver Fnk, JAB, LIX, bcl-3 and SHP expression vs IL-1β alone","[2]; mice, 100 ug/kg/day EE, 1 or 10 mg/kg/day E2, 30 mg/kg/day genistein, 5 mg/kg/day raloxifene, 10 mg/kg/day ICI182780, plus IL-1β",greatest effect
same,IL-1 repression of SHP expression,"[2]; mouse liver, realtime PCR, vehicle treated or 100 ug/kg/day EE treated animals",85%
same,IL-1 induction of bcl-3,"[2]; mouse liver, realtime PCR, vehicle treated or 100 ug/kg/day EE treated mice, IL-1 vs PBS",5.2 fold
same,"IL-1β fold induction of Fnk, JAB, and LIX","[2]; mouse liver, 100 ug/kg/day EE pretreated vs vehicle",reduced
same,IL-1β fold regulation for bcl-3 and SHP,"[2]; mouse liver, 100 ug/kg/day EE treated vs vehicle",the same
same,"inhibition of IL-1β induction of Fnk, JAB, LIX and bcl-3","[2]; mouse liver, 100 ug/kg/day EE, 30 mg/kg/day genistein, 5 mg/kg/day raloxifene",inhibited
same,basal expression of SHP,[2]; [4],increased
same,basal expression of bcl-3,[2]; [4],repressed
same,"IL-1β induction of Fnk, JAB, LIX, and bcl-3 in the liver","Fnk, JAB, LIX, and bcl-3; liver",significantly blocked
same,"IL-1β induction of Fnk, JAB, LIX, or bcl-3 in the lung","Fnk, JAB, LIX, and bcl-3; lung",no effect
same,IL-1β induction of Fnk and JAB in the spleen,"Fnk, JAB, LIX, and bcl-3; spleen",blocked
same,IL-1 Induction A20 (Tnfaip3),mouse liver [3],11.4 fold
same,"IL-1 Induction B94, TNF-α induced protein 2 (Tnfaip2)",mouse liver [3],17.7 fold
same,IL-1 Induction C/EBPδ (Cebpd),mouse liver [3],5.2 fold
same,IL-1 Induction CD14 (Cd14),mouse liver [3],6.1 fold
same,IL-1 Induction CD83 (Cd83),mouse liver [3],4.0 fold
same,IL-1 Induction E-selectin (Sele),mouse liver [3],5.2 fold
same,IL-1 Induction Ets transcription factor ELF3 (Elf3),mouse liver [3],6.7 fold
same,IL-1 Induction G0/G1 switch gene 2 (G0s2),mouse liver [3],0.05 fold
same,IL-1 Induction GTP binding protein IRG-47 (lfi47),mouse liver [3],3.2 fold
same,IL-1 Induction Gadd45 (Gadd45a),mouse liver [3],3.6 fold
same,IL-1 Induction Glvr-1 (Slc20a1),mouse liver [3],5.8 fold
same,IL-1 Induction H-2Ld (H-2L),mouse liver [3],4.1 fold
same,IL-1 Induction ICAM-1 (lcam1),mouse liver [3],38.4 fold
same,IL-1 Induction IL-1m (Il1m),mouse liver [3],18.9 fold
same,IL-1 Induction IL-15 receptor (Il15ra),mouse liver [3],2.7 fold
same,IL-1 Induction IxBa (Nfkbia),mouse liver [3],7.4 fold
same,"IL-1 Induction JAB, suppressor of cytokine signaling 1 (Cish1)",mouse liver [3],1.4 fold
same,IL-1 Induction JE/MCP-1 (Scya2),mouse liver [3],64.4 fold
same,IL-1 Induction LIX (Scyb5),mouse liver [3],2.9 fold
same,IL-1 Induction LPS inducible C—C chemokine receptor related (AF030185),mouse liver [3],5.6 fold
same,IL-1 Induction M-CSF (Csf1),mouse liver [3],23.9 fold
same,IL-1 Induction MARCKS-like macrophage protein (Mlp),mouse liver [3],5.1 fold
same,IL-1 Induction MIG (Scyb9),mouse liver [3],5.4 fold
same,IL-1 Induction MIP2 (Scyb2),mouse liver [3],91.1 fold
same,IL-1 Induction MIP-1 gamma (Scya9),mouse liver [3],1.9 fold
same,IL-1 Induction MyD118 (GADD45b),mouse liver [3],12.9 fold
same,IL-1 Induction NF-E2 related factor 2 (NRF2) (Nfe212),mouse liver [3],7.2 fold
same,IL-1 Induction NF-kappa-B p105 (Nfkb1),mouse liver [3],6.2 fold
same,IL-1 Induction NFkB p100 (Nfkb2),mouse liver [3],2.8 fold
same,IL-1 Induction PAI-1 (Serpine1),mouse liver [3],40.8 fold
same,IL-1 Induction PDGF-induced KC (Gro1),mouse liver [3],6.1 fold
same,IL-1 Induction PIM-1 protein kinase (Pim1),mouse liver [3],2.1 fold
same,IL-1 Induction SHP (NrGb2),mouse liver [3],0.53 fold
same,IL-1 Induction T-cell death associated gene (Tdag),mouse liver [3],2.2 fold
same,IL-1 Induction T-cell specific GTPase (Tgtp),mouse liver [3],2.8 fold
same,IL-1 Induction TGFB inducible early growth response (Tieg),mouse liver [3],0.38 fold
same,IL-1 Induction Ubiquitin-conjugating E2 enzyme variant 2 (Ube2v2),mouse liver [3],5.3 fold
same,IL-1 Induction VCAM-1 (Vcam1),mouse liver [3],12.5 fold
same,"IL-1 Induction adrenergic receptor, beta 2 (Adrb2)",mouse liver [3],3.1 fold
same,IL-1 Induction adrenomedullin (Adm),mouse liver [3],10.0 fold
same,IL-1 Induction apoptosis inhibitor 1 (Birc2),mouse liver [3],8.9 fold
same,IL-1 Induction apoptosis inhibitor 2 (Birc3),mouse liver [3],4.3 fold
same,IL-1 Induction bcl-3 (Bcl3),mouse liver [3],6.2 fold
same,IL-1 Induction c-JUN (Jun),mouse liver [3],5.6 fold
same,IL-1 Induction calcium binding protein A6 (S100a6),mouse liver [3],2.6 fold
same,IL-1 Induction calgranulin A (S100A8),mouse liver [3],10.7 fold
same,IL-1 Induction calgranulin B (S100a9),mouse liver [3],25.7 fold
same,IL-1 Induction cytokine-inducible kinase Fnk (Cnk),mouse liver [3],0.3 fold
same,IL-1 Induction gly96 (ler3),mouse liver [3],43.8 fold
same,IL-1 Induction growth factor receptor bound protein 7 (Grb7),mouse liver [3],0.13 fold
same,IL-1 Induction guanylate nucleotide binding protein 2 (Gbp2),mouse liver [3],3.6 fold
same,IL-1 Induction helix-loop-helix factor HES-1 (Hes1),mouse liver [3],0.25 fold
same,IL-1 Induction heme oxygenase 1 (Hmox1),mouse liver [3],3.0 fold
same,IL-1 Induction hsp68 (Hsp70-3),mouse liver [3],1.5 fold
same,IL-1 Induction inducible 6-phosphofructo-2-kinase (AA163244),mouse liver [3],3.0 fold
same,IL-1 Induction inhibitor of DNA binding 3 (idb3),mouse liver [3],3.1 fold
same,IL-1 Induction insulin-like growth factor binding protein 1 (lgfbp1),mouse liver [3],4.3 fold
same,IL-1 Induction intercrine (Scya7),mouse liver [3],11.4 fold
same,IL-1 Induction interferon regulatory factor 1 (Irf1),mouse liver [3],9.0 fold
same,IL-1 Induction junB (Junb),mouse liver [3],2.6 fold
same,IL-1 Induction lipocalin 2 (Lcn2),mouse liver [3],2.9 fold
same,IL-1 Induction lkB-beta (Nfkbib),mouse liver [3],2.8 fold
same,IL-1 Induction m-myc (Myc),mouse liver [3],3.4 fold
same,IL-1 Induction macrophage interferon inducible protein 10 (Scyb10),mouse liver [3],39.3 fold
same,IL-1 Induction metalloproteinase-disintegrin (Adamts1),mouse liver [3],4.6 fold
same,IL-1 Induction molecule possessing ankyrin-repeats induced by LPS (aa614971),mouse liver [3],22.7 fold
same,IL-1 Induction myocyte-enriched calcineurin interactin protein (Dscrl),mouse liver [3],9.3 fold
same,IL-1 Induction noctumin (Ccr4),mouse liver [3],9.0 fold
same,IL-1 Induction p65 NF-kappa B (Rela),mouse liver [3],2.4 fold
same,IL-1 Induction phospholipid scramblase 1 (Plscr1),mouse liver [3],5.6 fold
same,IL-1 Induction protein tyrosine phosphatase 4a1 (Ptp4a1),mouse liver [3],1.2 fold
same,IL-1 Induction regulator for ribosome resistance homolog (Rrr),mouse liver [3],3.3 fold
same,IL-1 Induction relB (Relb),mouse liver [3],7.9 fold
same,IL-1 Induction rhoB (Arhb),mouse liver [3],18.5 fold
same,IL-1 Induction serum amyloid A 3 (Saa3),mouse liver [3],36.0 fold
same,IL-1 Induction serum amyloid A 4 (Saa4),mouse liver [3],1.9 fold
same,IL-1 Induction suppressor of cytokine signaling 2 (Cish2),mouse liver [3],1.7 fold
same,IL-1 Induction suppressor of cytokine signaling 3 (Cish3),mouse liver [3],6.0 fold
same,IL-1 Induction transglutaminase (Tgm2),mouse liver [3],8.0 fold
